Experiments:
[1] = tested on: Human immunodeficiency virus 1; assay: Antiviral activity against HIV1 BaL in human HOS cells; assay type: functional, organism-based; details: Human immunodeficiency virus 1, BaL
[2] = tested on: Human immunodeficiency virus 1; assay: Antiviral activity against HIV1 BaL in human PBL cells; assay type: functional, organism-based; details: Human immunodeficiency virus 1, BaL
[3] = Oral bioavailability in Sprague-Dawley rat at 1 mg/kg; assay type: ADME, organism-based; details: in vivo
[4] = Clearance in Sprague-Dawley rat at 1 mg/kg; assay type: ADME, organism-based; set-up: dose 1 mg/kg; details: in vivo
PBL = assay: Cytotoxicity against human PBL cells up to 1 uM; assay type: cell-based
HOS = assay: Cytotoxicity against human HOS cells up to 1 uM; assay type: cell-based
[5] = Apparent permeability across MDCK cells at pH 7.05; assay type: ADME, cell-based, Canis lupus familiaris; details: dog
[6] = Half life in Sprague-Dawley rat at 1 mg/kg; assay type: ADME, organism-based; set-up: dose 1 mg/kg; details: in vivo
Cytochrome P450 3A4 = Cytochrome P450 3A4 (Homo sapiens, UniProt P08684); assay: Inhibition of CYP3A4; assay type: ADME
Chain of Cytochrome P450 3A4 (P08684 whole entry): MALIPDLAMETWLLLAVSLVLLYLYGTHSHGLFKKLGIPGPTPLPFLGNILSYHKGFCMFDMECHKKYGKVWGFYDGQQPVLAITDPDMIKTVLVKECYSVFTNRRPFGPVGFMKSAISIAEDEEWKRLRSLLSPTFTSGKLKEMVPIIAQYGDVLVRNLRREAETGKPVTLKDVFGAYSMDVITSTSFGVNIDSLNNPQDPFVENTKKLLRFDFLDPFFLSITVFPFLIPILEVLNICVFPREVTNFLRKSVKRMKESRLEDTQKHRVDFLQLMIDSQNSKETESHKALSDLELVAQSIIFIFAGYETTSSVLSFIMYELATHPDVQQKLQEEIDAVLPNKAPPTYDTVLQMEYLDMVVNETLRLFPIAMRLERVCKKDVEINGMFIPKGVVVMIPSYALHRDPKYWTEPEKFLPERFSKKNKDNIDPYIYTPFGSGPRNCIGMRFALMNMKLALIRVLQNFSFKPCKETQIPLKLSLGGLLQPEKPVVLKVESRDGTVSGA

Compound | IC50 [1] | IC50 [2] | bioavailability [3] | clearance [4] | Activity (PBL) | Activity (HOS) | Papp [5] | half-life [6] | inhibition (INH) (Cytochrome P450 3A4)
CC(C)(C)NS(=O)(=O)c1ccc(Cl)c(C(=O)N2CCC(CCN3CCC(N(C(=O)NCc4ccc(C#N)cc4)c4cccc(F)c4)CC3)(c3cccc(F)c3)CC2)c1Cl | 3 nM | 0.8 nM | 10% | 9 mL/min/kg | Non-toxic | Non-toxic |  |  | 
N#Cc1ccc(CNC(=O)N(c2cccc(F)c2)C2CCN(CCC3(c4cccc(F)c4)CCN(C(=O)c4cc(S(=O)(=O)N5CC[C@H](O)C5)c(F)cc4Cl)CC3)CC2)cc1 | 1.5 nM | 0.5 nM | 8% | 24 mL/min/kg | Non-toxic | Non-toxic |  |  | 
N#Cc1ccc(CNC(=O)N(c2cccc(F)c2)C2CCN(CCC3(c4cccc(F)c4)CCN(C(=O)c4cc(S(=O)(=O)N5CCCC5)c(F)cc4Cl)CC3)CC2)cc1 | 1.5 nM | 0.6 nM | 9% | 9.5 mL/min/kg | Non-toxic | Non-toxic |  |  | 
N#Cc1ccc(CNC(=O)N(c2cccc(F)c2)C2CCN(CCC3(c4cccc(F)c4)CCN(C(=O)c4cc(S(=O)(=O)N5CC[C@H](O)C5)c(F)cc4F)CC3)CC2)cc1 | 1.3 nM |  | 0% | 43 mL/min/kg | Non-toxic | Non-toxic |  |  | 
N#Cc1ccc(CNC(=O)N(c2cccc(F)c2)C2CCN(CCC3(c4cccc(F)c4)CCN(C(=O)c4cc(S(=O)(=O)N5CCCC5)c(F)cc4F)CC3)CC2)cc1 | 0.9 nM | 0.6 nM | 10% | 29 mL/min/kg | Non-toxic | Non-toxic |  |  | 
N#Cc1ccc(CNC(=O)N(c2cccc(F)c2)C2CCN(CCC3(c4cccc(F)c4)CCN(C(=O)c4cc(S(N)(=O)=O)c(F)cc4F)CC3)CC2)cc1 | 4 nM | 5.2 nM |  | 31 mL/min/kg | Non-toxic | Non-toxic | < 0.3 ×10⁻⁶ cm/s |  | 
N#Cc1ccc(CNC(=O)N(c2cccc(F)c2)C2CCN(CCC3(c4cccc(F)c4)CCN(C(=O)c4cc(S(N)(=O)=O)c(F)cc4Cl)CC3)CC2)cc1 | 6.8 nM | 0.9 nM |  | 9.7 mL/min/kg | Non-toxic | Non-toxic | < 0.3 ×10⁻⁶ cm/s |  | 
N#Cc1ccc(CNC(=O)N(c2cccc(F)c2)C2CCN(CCC3(c4cccc(F)c4)CCN(C(=O)c4c(Cl)ccc(S(N)(=O)=O)c4Cl)CC3)CC2)cc1 | 5.7 nM | 2.8 nM |  | 16 mL/min/kg | Non-toxic | Non-toxic | < 0.3 ×10⁻⁶ cm/s |  | 
N#Cc1ccc(CNC(=O)N(c2cccc(F)c2)C2CCN(CCC3(c4cccc(F)c4)CCN(C(=O)c4c(F)ccc(S(N)(=O)=O)c4F)CC3)CC2)cc1 | 6.6 nM | 2 nM |  | 25 mL/min/kg | Non-toxic | Non-toxic |  |  | 
N#Cc1ccc(CNC(=O)N(c2cccc(F)c2)C2CCN(CCC3(c4cccc(F)c4)CCN(C(=O)c4c(Cl)cncc4Cl)CC3)CC2)cc1 | 2.7 nM | 4.8 nM | 50% | 24 mL/min/kg | Non-toxic | Non-toxic |  | 294 min | Active
N#Cc1ccc(CNC(=O)N(c2cccc(F)c2)C2CCN(CCC3(c4cccc(F)c4)CCN(C(=O)c4ccnc(Cl)c4)CC3)CC2)cc1 | 19 nM | 13 nM | 64% | 14.6 mL/min/kg | Non-toxic | Non-toxic |  | 348 min | Active
N#Cc1ccc(CNC(=O)N(c2cccc(F)c2)C2CCN(CCC3(c4cccc(F)c4)CCN(C(=O)c4cccnc4F)CC3)CC2)cc1 | 6.4 nM | 6.1 nM | 60% | 22.5 mL/min/kg | Non-toxic | Non-toxic |  | 204 min | Active
Cn1cc(Cl)c(C(=O)N2CCC(CCN3CCC(N(C(=O)NCc4ccc(C#N)cc4)c4cccc(F)c4)CC3)(c3cccc(F)c3)CC2)n1 | 17 nM | 22 nM | 11% | 25 mL/min/kg | Non-toxic | Non-toxic |  | 156 min | Active
N#Cc1ccc(CNC(=O)N(c2cccc(F)c2)C2CCN(CCC3(c4cccc(F)c4)CCN(C(=O)c4cn[nH]c4C(F)(F)F)CC3)CC2)cc1 | 8.2 nM |  | 3% | 13 mL/min/kg | Non-toxic | Non-toxic |  | 432 min | Active
N#Cc1ccc(CNC(=O)N(c2cccc(F)c2)C2CCN(CCC3(c4cccc(F)c4)CCN(C(=O)c4nsnc4O)CC3)CC2)cc1 | 1.1 nM | 41 nM | 0% | 124 mL/min/kg | Non-toxic | Non-toxic |  |  | Active
CC(C)(C)C(=O)N1CCC(CCN2CCC(N(C(=O)NCc3ccc(C#N)cc3)c3cccc(F)c3)CC2)(c2cccc(F)c2)CC1 | 11 nM | 5.3 nM | 11% | 10 mL/min/kg | Non-toxic | Non-toxic |  | 144 min | 
CC(C)(CO)C(=O)N1CCC(CCN2CCC(N(C(=O)NCc3ccc(C#N)cc3)c3cccc(F)c3)CC2)(c2cccc(F)c2)CC1 | 19 nM | 20 nM | 63% | 22 mL/min/kg | Non-toxic | Non-toxic |  | 156 min | 
CC(CO)(CO)C(=O)N1CCC(CCN2CCC(N(C(=O)NCc3ccc(C#N)cc3)c3cccc(F)c3)CC2)(c2cccc(F)c2)CC1 | 22 nM |  | 7% | 26 mL/min/kg | Non-toxic | Non-toxic |  | 264 min | 
N#Cc1ccc(CNC(=O)N(c2cccc(F)c2)C2CCN(CCC3(c4cccc(F)c4)CCN(C(=O)C4CCOCC4)CC3)CC2)cc1 | 17 nM | 22 nM | 11% | 25 mL/min/kg | Non-toxic | Non-toxic |  | 156 min | 
CC(C)(C#N)C(=O)N1CCC(CCN2CCC(N(C(=O)NCc3ccc(C#N)cc3)c3cccc(F)c3)CC2)(c2cccc(F)c2)CC1 | 6.4 nM | 49 nM | 28% | 12 mL/min/kg | Non-toxic | Non-toxic |  | 258 min | 

— ChEMBL document CHEMBL1287766, “Discovery of N-benzyl-N'-(4-pipyridinyl)urea CCR5 antagonists as anti-HIV-1 agents (II): modification of the acyl portion” (Bioorg Med Chem Lett, 2010)
